Measurements as given in patent publication US10039740B2, “Therapeutic combinations of sesquiterpenes and flavonoids” (Primus Pharmaceuticals, Inc., priority 2015, dated 2018).

Assays:
RAW267.4 cells [1] = test: Cell proliferation of RAW267.4 cells (cell counting); assay type: cell-based, mouse; details: cultured 3 days; for proliferation of RAW267.4 cells: p<0.001 vs control; for effect on RAW267.4 cells (proliferation): 1, 10, 50, 100, and 200 μg/ml, FIG. 4, FIG. 5
Method: Various experiments were conducted to determine effects of various active ingredients on RAW 267.4 in vitro. RAW267.4 cells refer to a mouse macrophage that produces various inflammatory cytokines including TNF-α and IL-1β. RAW267.4 cells may be prepared as 1×10^5/ml per well. These cells were cultured using a 24-well plate in DMEM containing 10% FBS and 1% P/S for 1, 2, 3 or 7 days in a water-saturated atmosphere containing 5% CO2 and 95% air at 37° C. RAW267.4 cells were cultured DMEM containing 10% FBS and 1% P/S in the presence of β-caryophyllene [1 (5 μM), 10, 50, 100 or 200 μg/ml of medium], baicalin [1 (2.24 μM), 10, 50, 100 or 200 μg/ml of medium], (+)-catechin [1 (3.45 μM), 10, 50, 100 or 200 μg/ml of medium], curcumin [1 (2.72 μM), 10, 50, 100 or 200 μg/ml of medium], or (+)-aromatic turmerone [1 (4.62 μM), 5, 10, 25 or 50 μg/ml of medium] for 3 days. After culture, cells were detached from each culture dish and counted. After trypsinization of each culture dish using 0.2% […] plus 0.02% EDTA in Ca^2+/Mg^2+-free PBS for 2 min at 37° C., detached cells from the dish were collected after centrifugation. Cells were resuspended in PBS solution and stained with eosin. Cell numbers were counted under a microscope using a Hemocytometer plate. Each dish was counted twice, and an average of two counts was calculated. Cell number was shown as number per well of plate. Statistical significance was determined using GraphPad InStat version 3 for Windows XP (GraphPad Software Inc. La Jolla, Calif.). Multiple comparisons were performed by one-way analysis of variance (ANOVA) with Tukey-Kramer multiple comparisons post test for parametric data as indicated. P<0.05 was considered statistically significant. The cells were cultured for 3 days in the presence of one or more various compounds to determine their anti-inflammatory effects.

RAW267.4 cells [2] = test: Cell death of RAW267.4 cells (cell number after confluence); assay type: cell-based, mouse; details: for death of RAW267.4 cells in vitro: conclusion from the cell death experiments
Method: RAW267.4 cells (1×10^5/ml per well) were cultured using a 24-well plate in DMEM containing 10% FBS and 1% P/S for 3 days until reaching confluence, and then the cells were cultured another for 2 days in the presence or absence of β-caryophyllene (1 or 10 μg/ml of medium) and/or baicalin or (+)-catechin (1 or 10 μg/ml of medium). After culture, cells were detached from each culture dish. After trypsinization of each culture dish using 0.2% […] plus 0.02% EDTA in Ca^2+/Mg^2+-free PBS for 2 min at 37° C., detached cells from the dish were collected after centrifugation. Cells were resuspended in PBS solution and stained with eosin. Cell numbers were counted under a microscope using a Hemocytometer plate. Each dish was counted twice, and an average of two counts was calculated. Cell number was shown as number per well of plate. Statistical significance was determined using GraphPad InStat version 3 for Windows XP (GraphPad Software Inc. La Jolla, Calif.). Multiple comparisons were performed by one-way analysis of variance (ANOVA) with Tukey-Kramer multiple comparisons post test for parametric data as indicated. P<0.05 was considered statistically significant.

| SMILES | effect on RAW267.4 cells (proliferation) (RAW267.4 cells [1]) | death of RAW267.4 cells in vitro (RAW267.4 cells [2]) | other results |
| --- | --- | --- | --- |
| CC(C)=CC(=O)C[C@H](C)c1ccc(C)cc1 [(+)-aromatic turmerone, reference compound] |  |  | proliferation of RAW267.4 cells (RAW267.4 cells [1]; 25 and 50 μg/ml, FIG. 3): significantly increased |
| Oc1cc(O)c2c(c1)O[C@H](c1ccc(O)c(O)c1)[C@@H](O)C2 [(+)-catechin] | did not result in a significant effect | do not have significant effects |  |
| O=C(O)[C@H]1O[C@@H](Oc2cc3oc(-c4ccccc4)cc(=O)c3c(O)c2O)[C@H](O)[C@@H](O)[C@@H]1O [baicalin] | did not result in a significant effect | do not have significant effects |  |
| COc1cc(/C=C/C(=O)CC(=O)/C=C/c2ccc(O)c(OC)c2)ccc1O [curcumin, reference compound] |  |  | proliferation of RAW267.4 cells (RAW267.4 cells [1]; 100 and 200 μg/ml, FIG. 2): suppressed |
| C=C1CC/C=C(\C)CC[C@@H]2[C@@H]1CC2(C)C [β-caryophyllene] |  | do not have significant effects | suppressive effect on cell proliferation (RAW267.4 cells [1]; 1 or 10 μg/ml of each compound, FIG. 6, 7, 8, 10): did not result any significant suppressive effect; proliferation of RAW267.4 cells (RAW267.4 cells [1]; 50, 100, and 200 μg/ml of medium, FIG. 1): suppressed; number of RAW267.4 cells (cell death) (RAW267.4 cells [2]; 3 days without chemicals, then 2 days with compound(s) at about 1 or 10 μg/ml of medium, FIG. 13): did not induce a significant decrease |
